From ChEMBL document CHEMBL1641593, “Benzothieno[3,2-b]quinolinium and 3-(phenylthio)quinolinium compounds: Synthesis and evaluation against opportunistic fungal pathogens” (Bioorg Med Chem, 2011)
≈ marks a conversion by molar mass, not a printed value. Calls of active or inactive are those of the source. The calls are words filed in the database; no cut-off is given here.

Legend:
Cryptococcus neoformans [1] = experiment: Antifungal activity against Cryptococcus neoformans ATCC 90113 at 20 ug/ml by CLSI method; type: functional, organism-based
Cryptococcus neoformans [2] = experiment: Antifungal activity against Cryptococcus neoformans ATCC 90113 by CLSI method; type: functional, organism-based
Vero = experiment: Cytotoxicity against african green monkey Vero cells after 48 hrs by neutral red assay; type: cell-based; conditions: Chlorocebus sabaeus
Aspergillus fumigatus = experiment: Antifungal activity against Aspergillus fumigatus ATCC 90906 by CLSI method; type: functional, organism-based
Candida albicans [3] = experiment: Antifungal activity against Candida albicans ATCC 90028 by CLSI method; type: functional, organism-based
Mus musculus [4] = experiment: Toxicity in Cryptococcus neoformans ATCC 52657 infected mouse assessed as enlargement of liver with fusion of hepatic lobes at 20 mg/kg, ip qd for 5 days; type: organism-based; design: dose 20 mg/kg, route intraperitoneal; conditions: in vivo, 120 h
Mus musculus [5] = experiment: Toxicity in Cryptococcus neoformans ATCC 52657 infected mouse assessed as signs of discomfort at 10 to 20 mg/kg, ip qd for 5 days; type: organism-based; design: dose 10-20 mg/kg, route intraperitoneal; conditions: in vivo, 120 h
Mus musculus [6] = experiment: Toxicity in Cryptococcus neoformans ATCC 52657 infected mouse assessed as distension of duodenum at 20 mg/kg, ip qd for 5 days; type: organism-based; design: dose 20 mg/kg; conditions: in vivo, other, 120 h
Mus musculus [7] = experiment: Toxicity in Cryptococcus neoformans ATCC 52657 infected mouse assessed as distension of duodenum at 10 mg/kg, ip qd for 5 days; type: organism-based; design: dose 10 mg/kg; conditions: in vivo, other, 120 h
Mus musculus [8] = experiment: Toxicity in Cryptococcus neoformans ATCC 52657 infected mouse assessed as decrease in mobility at 10 to 20 mg/kg, ip qd for 5 days after 2 hrs last post dose; type: organism-based; design: dose 10-20 mg/kg, route intraperitoneal; conditions: in vivo
Mus musculus [9] = experiment: Toxicity in Cryptococcus neoformans ATCC 52657 infected mouse assessed as distension of cecum at 20 mg/kg, ip qd for 5 days; type: organism-based, Caecum; design: dose 20 mg/kg, route intraperitoneal; conditions: in vivo, 120 h
Mus musculus [10] = experiment: Toxicity in Cryptococcus neoformans ATCC 52657 infected mouse assessed as distension of jejunum at 10 mg/kg, ip qd for 5 days; type: organism-based; design: dose 10 mg/kg, route intraperitoneal; conditions: in vivo, 120 h
Mus musculus [11] = experiment: Toxicity in Cryptococcus neoformans ATCC 52657 infected mouse assessed as decrease in mobility at 10 to 20 mg/kg, ip qd for 5 days; type: organism-based; design: dose 10-20 mg/kg, route intraperitoneal; conditions: in vivo, 120 h
Mus musculus [12] = experiment: Toxicity in Cryptococcus neoformans ATCC 52657 infected mouse assessed as change in gross pathology of spleen at 10 to 20 mg/kg, ip qd for 5 days; type: organism-based; design: dose 10-20 mg/kg, route intraperitoneal; conditions: in vivo, 120 h
Mus musculus [13] = experiment: Toxicity in Cryptococcus neoformans ATCC 52657 infected mouse assessed as distension of cecum at 10 mg/kg, ip qd for 5 days; type: organism-based, Caecum; design: dose 10 mg/kg, route intraperitoneal; conditions: in vivo, 120 h
Mus musculus [14] = experiment: Toxicity in Cryptococcus neoformans ATCC 52657 infected mouse assessed as change in body weight at 20 mg/kg, ip qd for 5 days; type: organism-based; design: dose 20 mg/kg, route intraperitoneal; conditions: in vivo, 120 h
Mus musculus [15] = experiment: Toxicity in Cryptococcus neoformans ATCC 52657 infected mouse assessed as distension of jejunum at 20 mg/kg, ip qd for 5 days; type: organism-based; design: dose 20 mg/kg, route intraperitoneal; conditions: in vivo, 120 h
Mus musculus [16] = experiment: Toxicity in Cryptococcus neoformans ATCC 52657 infected mouse assessed as change in gross pathology of kidney at 10 to 20 mg/kg, ip qd for 5 days; type: organism-based; design: dose 10-20 mg/kg, route intraperitoneal; conditions: in vivo, 120 h
Mus musculus [17] = experiment: Toxicity in Cryptococcus neoformans ATCC 52657 infected mouse assessed as signs of discomfort at 10 to 20 mg/kg, ip qd for 5 days after 2 hrs last post dose; type: organism-based; design: dose 10-20 mg/kg, route intraperitoneal; conditions: in vivo
Mus musculus [18] = experiment: Toxicity in Cryptococcus neoformans ATCC 52657 infected mouse assessed as pathological lesions at 10 mg/kg, ip qd for 5 days; type: organism-based; design: dose 10 mg/kg, route intraperitoneal; conditions: in vivo, 120 h
Candida albicans [19] = experiment: Antifungal activity against Candida albicans ATCC 90028 at 20 ug/ml by CLSI method; type: functional, organism-based
Mus musculus [20] = experiment: Toxicity in Cryptococcus neoformans ATCC 52657 infected mouse assessed as change in body weight at 10 mg/kg, ip qd for 5 days; type: organism-based; design: dose 10 mg/kg, route intraperitoneal; conditions: in vivo, 120 h
Pichia kudriavzevii = experiment: Antifungal activity against Candida krusei ATCC 6258 by CLSI method; type: functional, organism-based
[21] = Candida albicans, ATCC 90028, read-out: MFC

SMILES | IC50 (Cryptococcus neoformans [2]) [µg/mL] | MIC (Aspergillus fumigatus) [µg/mL] | IC50 (Candida albicans [3]; Candida albicans, ATCC 90028) [µg/mL] | MIC (Candida albicans [3]; Candida albicans, ATCC 90028) [µg/mL] | MIC (Cryptococcus neoformans [2]) [µg/mL] | IC50 (Vero) [µg/mL] | IC50 (Aspergillus fumigatus) [µg/mL] | also measured
COc1cccc2c1cc1sc3ccccc3c1[n+]2C |  |  |  |  |  |  |  | Activity (Cryptococcus neoformans [1]): inactive
C[n+]1c2c(Cl)cccc2cc2sc3ccccc3c21.O=S(=O)([O-])C(F)(F)F | 4 | 10 |  |  | 10 | > 10 | 6 | Activity (Mus musculus [4]): Toxic; Activity (Mus musculus [5]): Toxic; Activity (Mus musculus [6]): Toxic; Activity (Mus musculus [7]): Toxic; Activity (Mus musculus [8]): Non-toxic; Activity (Mus musculus [9]): Toxic; Activity (Mus musculus [10]): Toxic; Activity (Mus musculus [11]): Toxic; Activity (Mus musculus [12]): Non-toxic; Activity (Mus musculus [13]): Toxic; Activity (Mus musculus [14]): Toxic; Activity (Mus musculus [15]): Toxic; Activity (Mus musculus [16]): Non-toxic; Activity (Mus musculus [17]): Non-toxic; Activity (Mus musculus [18]): Non-toxic; Activity (Candida albicans [19]): inactive; Activity (Mus musculus [20]): Non-toxic
C[n+]1c2ccccc2cc2sc3ccccc3c21.O=S(=O)([O-])C(F)(F)F | > 15 | > 20 | 10 | > 20 | > 20 | > 23.8 |  | 
COc1cccc2c1cc1sc3ccccc3c1[n+]2C.O=S(=O)([O-])C(F)(F)F |  | 1.3 | 15 | > 20 |  | > 4.7 | 0.8 | 
COc1cccc2cc3sc4ccccc4c3[n+](C)c12.O=S(=O)([O-])C(F)(F)F | 15 | 5 | 15 | > 20 | > 20 |  | 3 | 

More lines, main results first:

IC50 (Cryptococcus neoformans [2]) [µg/mL] | MIC (Aspergillus fumigatus) [µg/mL] | IC50 (Candida albicans [3]; Candida albicans, ATCC 90028) [µg/mL] | MIC (Candida albicans [3]; Candida albicans, ATCC 90028) [µg/mL] | MIC (Cryptococcus neoformans [2]) [µg/mL] | SMILES | IC50 (Vero) [µg/mL] | IC50 (Aspergillus fumigatus) [µg/mL] | also measured
12.5 (≈ 53.8 µM) |  |  |  |  | C[n+]1c2ccccc2cc2[n-]c3ccccc3c21 [CRYPTOLEPINE] | 3.2 (≈ 13.8 µM) |  | 
 | 2.5 | 15 | > 20 |  | COc1cccc2c1cc1sc3ccccc3c1[n+]2C.[I-] |  | 1.5 | 
 | > 20 |  | 7.8 | > 20 | C[n+]1c2ccccc2cc2sc3ccccc3c21.[I-] | > 23.8 |  | 
15 | > 2.5 | 6 | 20 | 20 | C[n+]1cc(Sc2ccccc2)cc2ccccc21.[I-] |  |  | MFC (Aspergillus fumigatus): 20 µg/mL; MFC (Candida albicans [3]; [21]): > 20 µg/mL; MFC (Cryptococcus neoformans [2]): > 20 µg/mL
1.5 | 1.3 | 5.5 | 10 | 5 | [I-].c1ccc(CCCCC[n+]2cc(Sc3ccccc3)cc3ccccc32)cc1 |  |  | MFC (Aspergillus fumigatus): > 20 µg/mL; MFC (Candida albicans [3]): 20 µg/mL; MFC (Candida albicans [3]; [21]): > 20 µg/mL; MFC (Cryptococcus neoformans [2]): 10 µg/mL; IC50 (Pichia kudriavzevii): 1.5 µg/mL; MFC (Pichia kudriavzevii): 20 µg/mL; MIC (Pichia kudriavzevii): 5 µg/mL
10 | 5 | 7 | > 20 | > 20 | COc1cccc2c1sc1cc3ccccc3[n+](C)c12.[I-] | > 10 | 3 | 
 | 20 |  |  |  | COc1ccc2sc3cc4ccccc4[n+](C)c3c2c1.[I-] |  | 8 | Activity (Cryptococcus neoformans [1]): inactive; Activity (Candida albicans [19]): inactive
